The source of these data is paper PMC10491836, “Structural dynamics influences the antibacterial activity of a cell-penetrating peptide (KFF)3K” (Scientific Reports, 2023).

Data set [1] concerns E. coli 1841-06. Format: cell-based. The method, then: (§1) The minimal inhibitory concentration (MIC) values were determined as follows. Bacteria were first cultured overnight in 2 mL of Lysogeny Broth (LB, VWR Chemicals) at 37 °C with shaking. Second, 20 µL of overnight culture was transferred into 2 mL of MHB medium and further cultured at 37 °C with shaking until the culture reached OD600 of 0.3. Third, the culture was diluted 1:100 in a fresh MHB medium and aliquots of 50 µL were mixed with 50 µL of the previously prepared dilutions of the tested compound in MHB on a transparent flat-bottom 96-well plate (Nest). The plate was then sealed with transparent foil (Titer-Tops) and incubated for 20 h, at 37 °C with shaking. Following incubation, OD at 600 nm was measured using the Tecan Sunrise plate reader. Growth inhibition was determined by comparing the given sample with untreated culture (Growth Control—GC) with MHB alone (Sterility Control—SC) as an additional reference. The experiment was performed in at least two biological replicates of two technical replicates each. Statistical significance was determined by a Two-way ANOVA test using GraphPad Prism 9.

Data set [2] relates to E. coli O157:H7 ST2-8624. In kind it is cell-based. The note with it: MHB, 20 h, 37 °C, OD600; at least two biological replicates of two technical replicates; tested up to 32 µM. The method, then:
as §1

In data set [3] the test system is Ps. aeruginosa ATCC 27853. In kind it is cell-based. The method, then:
as §1

Data set [4] deals with S. aureus ATCC 29213. In kind it is cell-based. The method, then: as §1
For data set [5], the system named is S. aureus ATCC BAA1720 MRSA. In kind it is cell-based. The conditions noted are these: MHB, 20 h, 37 °C, OD600; methicillin-resistant strain; tested up to 32 µM. The method, then:
as §1

In data set [6] the test system is E. coli K12. In words: Antibacterial activity determination, MIC. The note with it: MHB, 20 h, 37 °C, OD600; reference non-pathogenic strain; tested up to 32 µM. Format: cell-based. The method, then: as §1
Data set [7] relates to E. coli 1841-06. In kind it is cell-based. The method, then:
(§2) The minimal bactericidal concentration (MBC) values were determined, by diluting wells from the MIC experiment plate in fresh MHB medium. Dilutions of 10, 100, and 1000 times were prepared for the MIC well and up to two higher than MIC concentrations of the tested compound. Dilutions were made on a transparent flat-bottom 96-well plate (Nest) that was next sealed and incubated for 24 h, at 37 °C with shaking. Growth in a given sample well was compared with GC and SC controls.
The source holds these as a separate data set.

Data set [8] concerns E. coli K12. Format: cell-based. The method, then: as §2
Data set [9] concerns E. coli O157:H7 ST2-8624. Format: cell-based. The note with it: wells of MIC plate diluted 10, 100, 1000 times in MHB, 24 h, 37 °C. The method, then:
as §2

In data set [10] the test system is Ps. aeruginosa ATCC 27853. Format: cell-based. The method, then:
as §2
This is another data set of the same source.

The subject of data set [11] is S. aureus ATCC 29213. Format: cell-based. The method, then:
as §2
This is another data set of the same source.

The test system of data set [12] is S. aureus ATCC BAA1720 MRSA. Format: cell-based. The method, then:
as §2

Data set [13] has as its target T1, α-chymotrypsin from bovine pancreas (Bos taurus, UniProt P00766).
T1 construct: α-chymotrypsin from bovine pancreas; from tissue; host or cells: bovine pancreas
Kind of data set: in vitro. The note with it: pH 8. In kind it is in vitro ADME. The method, then:
(§3) The proteolytic stability of peptides was analyzed against α-chymotrypsin from bovine pancreas (3.4.21.1, ≥ 40 units/mg protein). Peptide solutions (340 µL) in ammonium bicarbonate buffer (0.1 M NH4HCO3, pH 8.0) were incubated with the appropriate amount of chymotrypsin at 37 °C with rapid shaking (600 rpm). Chymotrypsin and peptides were mixed in the 1:1333 ratio[47],[71]. Digestion mixture (60 µL) was taken at 4, 8, 12, 16, and 20 min and treated with 3 µL of 50% acetonitrile containing 1% TFA to stop the reaction and immediately store in ice. Peptide degradation was analyzed with RP-HPLC using the analytical method from 15 to 75% of acetonitrile in 30 min. Before the injection, the sample was diluted by adding 57 µL of ammonium bicarbonate buffer. 100 µL of the solution taken in each period was injected. The stabilities were quantified as the percentage of the peptide peak of area degradation. The total area of each peak was determined for experiments without chymotrypsin. Each experiment was performed twice on different days.

In data set [14] the test system is Gram-positive and Gram-negative strains. The conditions noted are these: both Gram-positive and Gram-negative strains; cited from earlier work. The source says:
Furthermore, a single-point mutation of a peptide sequence can change its solely cell-penetrating ability into antimicrobial activity, or vice versa. It was shown that the incorporation of hydrophobic or cationic residues changed the character of a CPP into a more antibacterial one.

The subject of data set [15] is various Gram-positive and Gram-negative strains. In words: MIC over the panel of strains (summary statements). In kind it is cell-based. The method, then: as §1
In data set [16] the test system is T2, α-chymotrypsin.
T2 construct: α-chymotrypsin from bovine pancreas; from tissue; host or cells: bovine pancreas
In words: in vitro. In kind it is in vitro ADME, bovine. The conditions noted are these: isolated enzyme chymotrypsin, pH 8. The method, then: as §3

[17] abbreviates: MHB, 20 h, 37 °C, OD600, tested up to 32 µM.
[18] abbreviates: wells of MIC plate diluted 10, 100, 1000 times in MHB, 24 h, 37 °C.

Values after ≈ are worked out from the molar mass of the structure shown. Read-outs that look alike come from different tables or passages of the source. Positions of bridges follow the written chain, without caps; N, C: chain ends. Non-standard residues stand in square brackets, D forms with d. Residues, ends and D or L forms follow the SMILES beside them. No end group written: not given here. S5 = C=CCCC[C@](C)(N)C(=O)O A value given as a limit tells only on which side of the number the result lay.

Usually MIC stands for the lowest concentration that inhibits growth of the organism. The MBC is the smallest concentration meeting the test's criterion for killing.

In the case of `C[C@@]1(C(=O)N[C@@H](CCCCN)C(=O)N[C@@H](Cc2ccccc2)C(=O)N[C@@H](Cc2ccccc2)C(=O)N[C@@H](CCCCN)C(N)=O)CCCC=CCCC[C@](C)(NC(=O)[C@@H](N)CCCCN)C(=O)N[C@@H](Cc2ccccc2)C(=O)N[C@@H](CCCCN)C(=O)N[C@@H](Cc2ccccc2)C(=O)N1` [(KFF)3K[2–6]] (H-K[S5]FKF[S5]KFFK-NH2; staple 2-6), the MIC is 4 µM (≈ 5.48 µg/mL) in data set [1] (1841-06, 20 h); 4 µM (≈ 5.48 µg/mL) in [2]; 4 to 8 µM in data set [3] (ATCC 27853, 20 h); 16 µM (≈ 21.9 µg/mL) in [4] (ATCC 29213, 20 h); 8 µM (≈ 11 µg/mL) in [5]; 2 µM (≈ 2.74 µg/mL) in data set [6]. For the same molecule, the MBC in data set [7] (1841-06, 24 h) was 4 µM (≈ 5.48 µg/mL); in [8] (K12, 24 h), 2 µM (≈ 2.74 µg/mL); in [9], 4 µM (≈ 5.48 µg/mL); in [10] (ATCC 27853, 24 h) it was 8 µM (≈ 11 µg/mL); in data set [11] (ATCC 29213, 24 h), 16 to 32 µM; in data set [12] (ATCC BAA1720, 24 h) it was 16 to 32 µM.
Turning to `C[C@@]1(C(=O)N[C@@H](CCCCN)C(N)=O)CCCC=CCCC[C@](C)(NC(=O)[C@H](CCCCN)NC(=O)[C@H](Cc2ccccc2)NC(=O)[C@H](Cc2ccccc2)NC(=O)[C@@H](N)CCCCN)C(=O)N[C@@H](Cc2ccccc2)C(=O)N[C@@H](CCCCN)C(=O)N[C@@H](Cc2ccccc2)C(=O)N1` [(KFF)3K[5–9]] (H-KFFK[S5]FKF[S5]K-NH2; staple 5-9), the MIC in data set [1] (1841-06, 20 h) was 4 µM (≈ 5.48 µg/mL); in data set [2] it was 8 µM (≈ 11 µg/mL); in data set [3] (ATCC 27853, 20 h), 4 µM (≈ 5.48 µg/mL); in data set [4] (ATCC 29213, 20 h) it was 8 to 16 µM; in data set [5] it was 16 µM (≈ 21.9 µg/mL); in data set [6], 2 µM (≈ 2.74 µg/mL). The MBC in data set [7] (1841-06, 24 h) worked out at 8 µM (≈ 11 µg/mL); in [8] (K12, 24 h), 2 µM (≈ 2.74 µg/mL); in data set [9], 8 µM (≈ 11 µg/mL); in [10] (ATCC 27853, 24 h), 4 µM (≈ 5.48 µg/mL); in data set [11] (ATCC 29213, 24 h), 16 µM (≈ 21.9 µg/mL); in [12] (ATCC BAA1720, 24 h), 32 µM (≈ 43.8 µg/mL). Moreover, the “peptide remained undigested after incubation in chymotrypsin solution” value in data set [13] is on record as 90%.
On to “KETWWETWWTEWSQPKKKRKV [Pep-1, amphipathic cell-penetrating peptide quoted from the literature]”, for which the MIC in data set [14] is 32 to 64 µM.
Regarding KFFKFFKFFK-NH2 [(KFF)3K], the minimal inhibitory concentration (MIC) in data set [1] (1841-06, 20 h) is recorded as above 32 µM; in [2], 32 µM; in data set [3] (ATCC 27853, 20 h), 32 µM; in [4] (ATCC 29213, 20 h), above 32 µM; in data set [5], above 32 µM; in data set [6], 32 µM. In data set [15] (all Gram-positive and Gram-negative strains tested), this molecule came in with an MIC above 32 µM. Further, the MBC is listed as above 32 µM in [7] (1841-06, 24 h); 32 µM in data set [8] (K12, 24 h); at least 32 µM in data set [9]; at least 32 µM in data set [10] (ATCC 27853, 24 h); above 32 µM in data set [11] (ATCC 29213, 24 h); above 32 µM in data set [12] (ATCC BAA1720, 24 h). For the same molecule, the metabolised at 20 min in data set [16] was found to be 70%.
Consider polymyxin B, for which the MIC in data set [1] (MHB, 20 h, 37 °C, OD600, β-lactam resistant strain, tested up to 32 µM) was 1 µM; in [2] it was 0.5 to 1 µM; in [3] (setting [17]), 1 µM; in data set [4] (setting [17]), above 32 µM; in [5], above 32 µM; in data set [6], 0.125 µM. Further, the MBC was 1 µM in [7] (setting [18]); 0.125 µM in data set [8] (setting [18]); 0.5 to 1 µM in data set [9]; 1 µM in data set [10] (setting [18]); above 32 µM in data set [11] (setting [18]); above 32 µM in data set [12] (setting [18]). In addition, the antibacterial activity result in data set [15] (Gram-positive strains, tested up to 32 µM) is “not active”.
